“Also recorded” adds a separate entry of the source. Where a SMILES comes first, the peptide text is derived from it. [ ]: non-standard residue; d: D form.
Test system: bacterial toxins
Conditions: mouse, in vivo; cited from earlier work

Compound | rescue from lethal effects of bacterial toxins
YNKKKATVQELD | rescues mice from the lethal effects of bacterial toxins

Test system: human PBMCs stimulated with SEB
Assay type: cell-based
Conditions: not given

Compound | inhibition of SEB proliferation (words) | inhibition of blastogenesis | inhibitory activity of alanine substitution constructs | inhibition of proliferative effects of the toxin | loss of inhibiting activity compared with original 12-mer peptide | inhibition of SEB proliferation
CSCC[C@@H](NC(=O)[C@H](N)CS)C(=O)N[C@H](Cc1ccc(O)cc1)C(=O)O [CMY*] (H-[dC]-[dM]-[dY]-OH) | significantly greater inhibitory effects than the control 12-mer peptide or their respective L-conformation peptides; also recorded: most effective in blocking superantigen activity |  |  |  |  | 
CSCC[C@@H](NC(=O)[C@H](N)Cc1ccc(O)cc1)C(=O)N[C@H](CS)C(=O)O [YMC*] (H-[dY]-[dM]-[dC]-OH) | significantly greater inhibitory effects than the control 12-mer peptide or their respective L-conformation peptides; also recorded: most effective in blocking superantigen activity |  |  |  |  | 
AAA [reference compound] |  | not effective |  |  |  | 
AMY |  | effective in inhibiting blastogenesis of the toxins |  |  |  | 
AMYGGVTEHEGN [SEQ ID NO: 8] |  |  | significant loss of the inhibitory properties |  |  | 
CAY |  | effective in inhibiting blastogenesis of the toxins |  |  |  | 
CAYGGVTEHEGN [SEQ ID NO: 9] |  |  | significant loss of the inhibitory properties |  |  | 
CMAGGVTEHEGN [SEQ ID NO: 10] |  |  | significant loss of the inhibitory properties; also recorded: complete loss of the inhibitory properties |  |  | 
CMYG |  |  |  | comparatively little effect in the inhibition of toxin regardless of concentration |  | 
CMYGGV |  |  |  |  | 52% | 
CMYGGVAEHEGN [A at 7] |  |  | better inhibition of biological activity than the original 12-mer peptide |  |  | 
CMYGGVTAHEGN [A at 8] |  |  | better inhibition of biological activity than the original 12-mer peptide |  |  | 
CMYGGVTEHE |  |  |  |  | 54% | 
CMYGGVTEHEG |  |  |  |  | 18% | 
CMYGK | comparable to that of the original 12 amino acid peptide; also recorded: more effectively than the 12-mer peptide 6343 |  |  |  |  | 
CMYKK | comparable and at high concentrations better than the original 12-mer peptide; also recorded: more effectively than the 12-mer peptide 6343 |  |  |  |  | 
CYM |  | effective in inhibiting blastogenesis of the toxins |  |  |  | 
EHEGNCMYGGVT [6343S, reference compound] | minimal effect on bacterial toxin proliferation |  |  |  |  | less than 20%
MYC |  | effective in inhibiting blastogenesis of the toxins |  |  |  | 
MYGGVTEHEGN |  |  |  |  | approximately 30% | 
TEHEGN |  |  |  |  | 48% | 
TTT [reference compound] |  | not effective |  |  |  | 
YGGVTEHEGN |  |  |  |  | approximately 50% | 
YYY [reference compound] |  | not inhibitory |  |  |  | 
acetylated CMY | did not significantly change the inhibitory effects of CMY |  |  |  |  | 
cmy-NH2 |  | effective in inhibiting blastogenesis of the toxins |  |  |  | 
cmy-OH |  | effective in inhibiting blastogenesis of the toxins |  |  |  | 

Test system: IL-2 RNA
Conditions: cited from earlier work

Compound | inhibition of expression of IL-2 RNA
YNKKKATVQELD | 18-40 fold

Test system: superantigen shock in Balb/c mice (SEB)
Conditions: mouse, in vivo

Compound | protection against superantigen shock
CSCC[C@@H](NC(=O)[C@H](N)CS)C(=O)N[C@H](Cc1ccc(O)cc1)C(=O)O [CMY*] (H-[dC]-[dM]-[dY]-OH) | provided some protection against superantigen-induced shock
CSCC[C@@H](NC(=O)[C@H](N)Cc1ccc(O)cc1)C(=O)N[C@H](CS)C(=O)O [YMC*] (H-[dY]-[dM]-[dC]-OH) | quite effective in protecting mice against shock

Same assay, conditions: mouse, in vivo, ip

Compound | % SURVIVAL [%] | SURVIVORS/INJECTED
CSCC[C@@H](NC(=O)[C@H](N)CS)C(=O)N[C@H](Cc1ccc(O)cc1)C(=O)O [CMY*] (H-[dC]-[dM]-[dY]-OH) | 33 | 2/6
CSCC[C@@H](NC(=O)[C@H](N)Cc1ccc(O)cc1)C(=O)N[C@H](CS)C(=O)O [YMC*] (H-[dY]-[dM]-[dC]-OH) | 83 | 5/6

— US20070027088A1 (priority 2003, published 2007)
